Source: patent US9040545B2, “Heterocyclyl pyrazolopyrimidine analogues as selective JAK inhibitors” (Cellzome Limited, priority 2010, dated 2015)

Experiments:
Aurora A = biological target: T1, Aurora A (Homo sapiens, UniProt O14965); experiment: Kinobeads assay, Aurora A; assay type: binding; conditions: for IC50: lysate of pervanadate-treated Jurkat cells, read-out: Inhibition values (IC50) Aur A
T1 construct: cell lysates from Jurkat cells (ATCC TIB-152) used; endogenous in cells; host or cells: Jurkat cells (ATCC TIB-152), treated with pervanadate
T1 sequence (O14965 1-403): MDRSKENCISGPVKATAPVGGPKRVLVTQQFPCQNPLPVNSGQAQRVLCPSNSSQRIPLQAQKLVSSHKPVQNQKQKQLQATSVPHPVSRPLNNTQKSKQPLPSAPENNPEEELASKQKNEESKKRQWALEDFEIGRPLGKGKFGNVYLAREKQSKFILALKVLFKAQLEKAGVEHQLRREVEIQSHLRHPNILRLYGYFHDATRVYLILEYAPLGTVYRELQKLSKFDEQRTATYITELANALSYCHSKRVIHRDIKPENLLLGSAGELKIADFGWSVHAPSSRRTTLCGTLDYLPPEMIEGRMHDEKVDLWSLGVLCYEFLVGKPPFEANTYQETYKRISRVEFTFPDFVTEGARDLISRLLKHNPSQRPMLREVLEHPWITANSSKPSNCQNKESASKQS

JAK2 = biological target: T2, JAK2 (Homo sapiens, UniProt O60674); experiment: Kinobeads assay, JAK2; assay type: binding; conditions: mixed Molt4/Ramos lysate, read-out: Inhibition values (IC50) JAK2
T2 construct: endogenous in cells; host or cells: mixed Molt4/Ramos lysate (1:2)
T2 sequence (O60674 whole entry): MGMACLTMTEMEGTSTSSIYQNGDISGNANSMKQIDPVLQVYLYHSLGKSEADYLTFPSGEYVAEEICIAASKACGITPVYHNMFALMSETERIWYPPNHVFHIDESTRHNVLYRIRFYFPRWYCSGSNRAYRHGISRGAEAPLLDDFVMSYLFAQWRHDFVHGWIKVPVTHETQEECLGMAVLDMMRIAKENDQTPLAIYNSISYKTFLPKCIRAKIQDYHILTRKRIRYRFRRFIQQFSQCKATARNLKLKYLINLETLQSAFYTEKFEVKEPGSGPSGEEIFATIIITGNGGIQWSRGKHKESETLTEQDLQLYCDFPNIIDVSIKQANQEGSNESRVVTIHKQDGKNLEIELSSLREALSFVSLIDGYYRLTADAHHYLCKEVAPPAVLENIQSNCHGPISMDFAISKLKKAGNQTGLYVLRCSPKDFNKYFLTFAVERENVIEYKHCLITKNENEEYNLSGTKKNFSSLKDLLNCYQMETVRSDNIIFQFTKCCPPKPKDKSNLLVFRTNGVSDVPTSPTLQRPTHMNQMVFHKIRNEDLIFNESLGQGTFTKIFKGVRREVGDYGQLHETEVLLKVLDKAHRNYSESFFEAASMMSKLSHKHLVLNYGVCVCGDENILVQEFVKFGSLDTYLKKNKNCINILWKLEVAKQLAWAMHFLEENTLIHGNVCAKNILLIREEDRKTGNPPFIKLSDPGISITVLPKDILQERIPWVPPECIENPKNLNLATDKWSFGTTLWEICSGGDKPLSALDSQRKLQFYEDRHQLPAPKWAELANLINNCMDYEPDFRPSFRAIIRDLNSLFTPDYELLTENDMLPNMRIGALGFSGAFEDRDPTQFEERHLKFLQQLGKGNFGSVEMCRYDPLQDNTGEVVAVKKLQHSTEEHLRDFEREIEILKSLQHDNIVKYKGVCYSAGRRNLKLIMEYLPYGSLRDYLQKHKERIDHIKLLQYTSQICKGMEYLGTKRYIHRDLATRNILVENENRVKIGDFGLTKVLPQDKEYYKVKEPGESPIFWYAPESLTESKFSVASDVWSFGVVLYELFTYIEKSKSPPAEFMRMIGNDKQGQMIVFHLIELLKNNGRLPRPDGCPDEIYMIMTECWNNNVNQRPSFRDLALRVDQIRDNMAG
Method in brief: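 Competition binding in mixed Molt4/Ramos cell lysate (1:2, 10 mg/mL protein) with Kinobeads carrying immobilized aminopyrido-pyrimidine ligand, 3 h in cold room; 9-step 1:3 compound dilution series from 5 mM DMSO stock. Bead-bound JAK2/JAK3 eluted and quantified by antibody dot blot with infrared detection; IC50 from dose-response curves.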

| JAK3/AurA Fold Selectivity (Aurora A) | IC50 (Aurora A) [µM] | IC50 (JAK2) [µM] | SMILES |
| --- | --- | --- | --- |
| >50 Fold | 1 to 10 | 1 to 10 | Cn1cc(Nc2ncc3cnn(Cc4cccc(C(=O)N5CCOCC5)c4F)c3n2)cn1 [Example 87, (2-Fluoro-3-((6-((1-methyl-1H-pyrazol-4-yl)amino)-1H-pyrazolo[3,4-d]pyrimidin-1-yl)methyl)phenyl)(morpholino)methanone] |
| 10-50 Fold | 1 to 10 | ≥ 10 | Cn1cc(Nc2ncc3cnn(Cc4cccc(N5CCOCC5O)c4)c3n2)cn1 (stereo not drawn) [Example 88, 4-(3-((6-((1-Methyl-1H-pyrazol-4-yl)amino)-1H-pyrazolo[3,4-d]pyrimidin-1-yl)methyl)phenyl)morpholin-3-ol] |
